US20050130909A1 (priority 2002, published 2005)

Test: Phase II SSTI trial: adverse events (ITT population)
Assay type: in vivo, human
Experimental: This randomized, controlled study evaluated the safety and efficacy of two dose regimens of dalbavancin.
Each patient who received at least one dose of study drug (ITT population) was evaluated for drug safety through monitoring of adverse events (AE), including abnormal clinical laboratory test results and vital signs. AE were rated by the investigator as to their severity (mild, moderate, severe, life-threatening), and by the relationship to the study drug (not related, unlikely related, possibly related, or probably related).

[1] = single-dose dalbavancin (N = 20)

SMILES: CN[C@H]1C(=O)N[C@@H]2Cc3ccc(cc3)Oc3cc4cc(c3O[C@@H]3O[C@H](C(=O)O)[C@@H](O)[C@H](O)[C@H]3NC(=O)CCCCCCCCC(C)C)Oc3ccc(cc3Cl)[C@@H](O)[C@@H]3NC(=O)[C@H](NC(=O)[C@@H]4NC(=O)[C@@H](NC2=O)c2cc(cc(O)c2Cl)Oc2cc1ccc2O)c1ccc(O)c(c1)-c1c(O[C@H]2O[C@H](CO)[C@@H](O)[C@H](O)[C@@H]2O)cc(O)cc1[C@@H](C(=O)NCCCN(C)C)NC3=O [Dalbavancin]
- Hepatotoxicity or nephrotoxicity (Phase II trial): no evidence that dalbavancin induces any degree of clinically significant hepatotoxicity or nephrotoxicity
- Serious adverse events related to study drug (Phase II trial, both dalbavancin regimens): no serious adverse events related to study drug treatment
- Tolerability (Phase II trial, both doses): well tolerated
- AE leading to discontinuation of study medication [1]: 0
- Patients with ≧1 AE [1]: 95%
- ≧1 AE possibly/probably related to treatment [1]: 55%
- ≧1 AE possibly/probably related to treatment (single-dose dalbavancin (N = 20), listed as dalbavancin): 55%
- AE leading to discontinuation of study medication (two-dose dalbavancin (N = 21)): 0
- Adverse event: Constipation (two-dose dalbavancin (N = 21)): 4.8%
- Patients with ≧1 AE (two-dose dalbavancin (N = 21)): 76.2%
- ≧1 AE possibly/probably related to treatment (two-dose dalbavancin (N = 21)): 48%
- ≧1 AE possibly/probably related to treatment (two-dose dalbavancin (N = 21), listed as dalbavancin): 48%
